Target: T1, glucokinase (GK), residues 12-465 of the human enzyme (Homo sapiens, UniProt P35557)
T1 construct: I.D. No. 1 corresponds to residues 12-465 of glucokinase; made in house; host or cells: E. coli DH10b-Tlr
T1 sequence (P35557 with tags, fused parts or gaps isoform P35557-2): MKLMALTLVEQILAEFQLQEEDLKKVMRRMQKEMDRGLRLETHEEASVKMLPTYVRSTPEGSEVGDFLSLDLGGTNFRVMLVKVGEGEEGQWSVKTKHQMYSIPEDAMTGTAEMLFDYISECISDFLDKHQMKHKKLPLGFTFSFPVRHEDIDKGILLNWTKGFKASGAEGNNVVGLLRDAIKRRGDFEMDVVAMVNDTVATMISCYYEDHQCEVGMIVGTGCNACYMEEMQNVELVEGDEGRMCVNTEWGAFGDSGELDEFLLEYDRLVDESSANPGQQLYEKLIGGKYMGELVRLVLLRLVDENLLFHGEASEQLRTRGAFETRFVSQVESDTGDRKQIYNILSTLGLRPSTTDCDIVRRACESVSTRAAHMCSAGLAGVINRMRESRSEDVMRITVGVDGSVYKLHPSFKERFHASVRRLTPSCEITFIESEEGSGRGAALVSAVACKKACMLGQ
Assay: Enzymatic glucokinase activity assay (KinaseGlo luminescence, ATP consumption)
Type: biochemical
Settings: 5 μM ATP, 5 mM Glucose; for EC50: GK activation, Kact = concentration giving 50% of the maximal increase in GK activity, read-out: pKact; for Emax: calculated maximal gain in GK enzyme activity at a saturating concentration of the compound, read-out: % ACTmax
How it was run: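 Activation measured as ATP consumption: residual ATP detected by KinaseGlo luminescence after 60 min at room temperature with 5 μM ATP and 5 mM glucose (Hepes pH 7.2, MgCl2, Brij35, DTT, 2% DMSO). Enzyme was recombinant FLAG-tagged protein from E. coli. Eleven-point twofold series were fitted nonlinearly for pKact and % ACTmax.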

| SMILES | EC50 | Emax |
| --- | --- | --- |
| Cn1cc(S(=O)(=O)N2CCN([C@@H](CC3CCCCC3)C(=O)Nc3nccs3)C(=O)C2)c(C(F)(F)F)n1 [Example 198, (S)-3-cyclohexyl-2-(4-(1-methyl-3-(trifluoromethyl)-1H-pyrazol-4-ylsulfonyl)-2-oxopiperazin-1-yl)-N-(thiazol-2-yl)propanamide] | 1580 to 2510 nM | 108 to 119% |
| O=C(Nc1nccs1)[C@H](CC1CCCCC1)N1CCN(S(=O)(=O)Cc2ccc(Cl)c(Cl)c2)CC1=O [Example 211, (S)-3-cyclohexyl-2-(4-(3,4-dichlorobenzylsulfonyl)-2-oxopiperazin-1-yl)-N-(thiazol-2-yl)propanamide] | 1580 to 2510 nM | ≤ 74% |
| O=C(Nc1nccs1)[C@H](CC1CCCCC1)N1CCN(S(=O)(=O)c2ccc(F)cc2)CC1=O [Example 89, (S)-3-cyclohexyl-2-(4-(4-fluorophenylsulfonyl)-2-oxopiperazin-1-yl)-N-(thiazol-2-yl)propanamide] | 794 to 1260 nM | 97.1 to 107% |
| COc1ccc2nc(NC(=O)C(CC3CCOCC3)N3CCN(S(=O)(=O)C4CCCC4)CC3=O)sc2n1 (stereo not drawn) [Example 29, 2-(4-(cyclopentylsulfonyl)-2-oxopiperazin-1-yl)-N-(5-methoxythiazolo[5,4-b]pyridin-2-yl)-3-(tetrahydro-2H-pyran-4-yl)propanamide] | 794 to 1260 nM | 108 to 119% |
| O=C(Nc1nccs1)[C@H](CC1CCCCC1)N1CCN(S(=O)(=O)c2ccc(Br)cc2)CC1=O [Example 204, (S)-2-(4-(4-bromophenylsulfonyl)-2-oxopiperazin-1-yl)-3-cyclohexyl-N-(thiazol-2-yl)propanamide] | 1580 to 2510 nM | 74.1 to 97% |
| O=C(Nc1nccs1)[C@H](CC1CCCCC1)N1CCN(S(=O)(=O)Cc2cc(Cl)cc(Cl)c2)CC1=O [Example 212, (S)-3-cyclohexyl-2-(4-(3,5-dichlorobenzylsulfonyl)-2-oxopiperazin-1-yl)-N-(thiazol-2-yl)propanamide] | 1580 to 2510 nM | 74.1 to 97% |
| O=C(Nc1nccs1)[C@H](CC1CCCCC1)N1CCN(C(=S)Nc2ccc(Cl)c(Cl)c2)CC1=O [Example 87, (S)-3-cyclohexyl-2-(4-(3,4-dichlorophenylcarbamothioyl)-2-oxopiperazin-1-yl)-N-(thiazol-2-yl)propanamide] | ≥ 3160 nM | 74.1 to 97% |
| O=C(Nc1nccs1)[C@H](CC1CCCCC1)N1CCN(S(=O)(=O)c2cccc(Cl)c2F)CC1=O [Example 188, (S)-2-(4-(3-chloro-2-fluorophenylsulfonyl)-2-oxopiperazin-1-yl)-3-cyclohexyl-N-(thiazol-2-yl)propanamide] | ≤ 631 nM | ≥ 119% |
| O=C(Nc1nccs1)[C@H](CC1CCCCC1)N1CCN(C(=S)Nc2cccc3ccccc23)CC1=O [Example 80, (S)-3-cyclohexyl-2-(4-(naphthalen-1-ylcarbamothioyl)-2-oxopiperazin-1-yl)-N-(thiazol-2-yl)propanamide] | 1580 to 2510 nM | 97.1 to 107% |
| Cc1cc(S(=O)(=O)N2CCN([C@@H](CC3CCCCC3)C(=O)Nc3nccs3)C(=O)C2)c(C)cc1Cl [Example 186, (S)-2-(4-(4-chloro-2,5-dimethylphenylsulfonyl)-2-oxopiperazin-1-yl)-3-cyclohexyl-N-(thiazol-2-yl)propanamide] | ≤ 631 nM | ≤ 74% |
| COc1cccc(S(=O)(=O)N2CCN([C@@H](CC3CCCCC3)C(=O)Nc3nccs3)C(=O)C2)c1 [Example 92, (S)-3-cyclohexyl-2-(4-(3-methoxyphenylsulfonyl)-2-oxopiperazin-1-yl)-N-(thiazol-2-yl)propanamide] | 794 to 1260 nM | ≥ 119% |
| Cc1nn(C)c(Cl)c1S(=O)(=O)N1CCN([C@@H](CC2CCCCC2)C(=O)Nc2nccs2)C(=O)C1 [Example 47, (S)-2-(4-(5-chloro-1,3-dimethyl-1H-pyrazol-4-ylsulfonyl)-2-oxopiperazin-1-yl)-3-cyclohexyl-N-(thiazol-2-yl)propanamide] | 1580 to 2510 nM | 97.1 to 107% |
| O=C(Nc1nccs1)[C@H](CC1CCCCC1)N1CCN(S(=O)(=O)Cc2cccc(C(F)(F)F)c2)CC1=O [Example 213, (S)-3-cyclohexyl-2-(2-oxo-4-(3-(trifluoromethyl)benzylsulfonyl)piperazin-1-yl)-N-(thiazol-2-yl)propanamide] | 1580 to 2510 nM | 74.1 to 97% |
| COC(=O)c1c(C)oc(C)c1S(=O)(=O)N1CCN([C@@H](CC2CCCCC2)C(=O)Nc2nccs2)C(=O)C1 [Example 162, (S)-methyl 4-(4-(3-cyclohexyl-1-oxo-1-(thiazol-2-ylamino)propan-2-yl)-3-oxopiperazin-1-ylsulfonyl)-2,5-dimethylfuran-3-carboxylate] | ≥ 3160 nM | ≤ 74% |
| CC(=O)c1ccc(S(=O)(=O)N2CCN([C@@H](CC3CCCCC3)C(=O)Nc3nccs3)C(=O)C2)cc1 [Example 206] | ≥ 3160 nM | 74.1 to 97% |
| O=C(Nc1nccs1)[C@H](CC1CCCCC1)N1CCN(C(=S)Nc2ccc(Oc3ccccc3)cc2)CC1=O [Example 127, (S)-3-cyclohexyl-2-(2-oxo-4-(4-phenoxyphenylcarbamothioyl)piperazin-1-yl)-N-(thiazol-2-yl)propanamide] | 1580 to 2510 nM | ≤ 74% |
| O=C(Nc1nccs1)[C@H](CC1CCCCC1)N1CCN(C(=O)Nc2cccc(C(F)(F)F)c2)CC1=O [Example 141, (S)-4-(3-cyclohexyl-1-oxo-1-(thiazol-2-ylamino)propan-2-yl)-3-oxo-N-(3-(trifluoromethyl)phenyl)piperazine-1-carboxamide] | ≥ 3160 nM | 74.1 to 97% |
| Cc1ccc(S(=O)(=O)N2CCN([C@@H](CC3CCCCC3)C(=O)Nc3nccs3)C(=O)C2)cc1Cl [Example 94, (S)-2-(4-(3-chloro-4-methylphenylsulfonyl)-2-oxopiperazin-1-yl)-3-cyclohexyl-N-(thiazol-2-yl)propanamide] | 794 to 1260 nM | 108 to 119% |
| Cc1ccc2sc(S(=O)(=O)N3CCN([C@@H](CC4CCCCC4)C(=O)Nc4nccs4)C(=O)C3)cc2c1 [Example 107, (S)-3-cyclohexyl-2-(4-(5-methylbenzo[b]thiophen-2-ylsulfonyl)-2-oxopiperazin-1-yl)-N-(thiazol-2-yl)propanamide] | 794 to 1260 nM | ≤ 74% |
| COc1ccc(Oc2cccc(S(=O)(=O)N3CCN([C@@H](CC4CCCCC4)C(=O)Nc4nccs4)C(=O)C3)c2)cc1 [Example 228, (S)-3-cyclohexyl-2-(4-(3-(4-methoxyphenoxy)phenylsulfonyl)-2-oxopiperazin-1-yl)-N-(thiazol-2-yl)propanamide] | 794 to 1260 nM | ≤ 74% |
| CC(=O)Nc1ccc(S(=O)(=O)N2CCN([C@@H](CC3CCCCC3)C(=O)Nc3nccs3)C(=O)C2)cc1 [Example 45, (S)-2-(4-(4-acetamidophenylsulfonyl)-2-oxopiperazin-1-yl)-3-cyclohexyl-N-(thiazol-2-yl)propanamide] | ≥ 3160 nM | 97.1 to 107% |
| O=C(Nc1nccs1)[C@H](CC1CCCCC1)N1CCN(C(=O)Nc2ccc(Cl)cc2)CC1=O [Example 137, (S)-N-(4-chlorophenyl)-4-(3-cyclohexyl-1-oxo-1-(thiazol-2-ylamino)propan-2-yl)-3-oxopiperazine-1-carboxamide] | ≥ 3160 nM | ≤ 74% |
| O=C(Nc1nccs1)[C@H](CC1CCCCC1)N1CCN(S(=O)(=O)c2ccc(-n3cccn3)cc2)CC1=O [Example 215, (S)-2-(4-(4-(1H-pyrazol-1-yl)phenylsulfonyl)-2-oxopiperazin-1-yl)-3-cyclohexyl-N-(thiazol-2-yl)propanamide] | 1580 to 2510 nM | 74.1 to 97% |
| O=C(Nc1nccs1)[C@H](CC1CCCCC1)N1CCN(S(=O)(=O)c2ccc(Oc3ccccn3)cc2)CC1=O [Example 207, (S)-3-cyclohexyl-2-(2-oxo-4-(4-(pyridin-2-yloxy)phenylsulfonyl)piperazin-1-yl)-N-(thiazol-2-yl)propanamide] | ≤ 631 nM | 74.1 to 97% |
| O=C(Nc1nccs1)[C@H](CC1CCCCC1)N1CCN(S(=O)(=O)c2cccc([N+](=O)[O-])c2)CC1=O [Example 156, (S)-3-cyclohexyl-2-(4-(3-nitrophenylsulfonyl)-2-oxopiperazin-1-yl)-N-(thiazol-2-yl)propanamide] | 1580 to 2510 nM | 97.1 to 107% |
| CC(C)S(=O)(=O)N1CCN([C@@H](CC2CCCCC2)C(=O)Nc2nccs2)C(=O)C1 [Example 59, (S)-3-cyclohexyl-2-(4-(isopropylsulfonyl)-2-oxopiperazin-1-yl)-N-(thiazol-2-yl)propanamide] | 1580 to 2510 nM | ≥ 119% |
| O=C(Nc1nccs1)[C@H](CC1CCCCC1)N1CCN(C(=S)NCc2cccs2)CC1=O [Example 123, (S)-3-cyclohexyl-2-(2-oxo-4-(thiophen-2-ylmethylcarbamothioyl)piperazin-1-yl)-N-(thiazol-2-yl)propanamide] | 1580 to 2510 nM | 108 to 119% |
